Measurements taken from patent US7795456B2, “Insecticidal N-substituted sulfoximines” (Dow AgroSciences LLC, priority 2004, dated 2010).

Key:
[1] = system: corn earworm (Helicoverpa zea); conditions: 50 μg/cm2, second-instar larvae, 5 days
[2] = system: cotton aphid (Aphis gossypii); test: Insecticidal test for cotton aphid, foliar spray on squash; conditions: for pest or weed control at 50 ppm / pest or weed control at 200 ppm: Aphis gossypii, foliar, 72 h; for pest or weed control at 50 ppm: read-out: CA 50: % control at 50 ppm against cotton aphid in foliar spray tests; for pest or weed control at 200 ppm: read-out: CA 200: % control at 200 ppm against cotton aphid in foliar spray tests
[3] = system: fruit fly (Drosophila melanogaster); conditions: for FF 25: % mortality at 25 μg/cm2 against fruit fly in dietary tests: 25 μg/cm2, 48 h; for FF SYM: % showing intoxicated symptoms at 25 μg/cm2 against fruit fly in dietary tests: 25 μg/cm2, 4 h
[4] = system: beet armyworm (Spodoptera exigua); conditions: 50 μg/cm2, second-instar larvae, 5 days
[5] = system: beet armyworm (Spodoptera exigua); test: Insecticidal test for beet armyworm in injection assays; conditions: 1 h, read-out: BAW SYM: % showing intoxicated symptoms at 10 μg/larva against beet armyworm in injection tests
[6] = system: sweet potato whitefly (Bemisia tabaci); test: Insecticidal test for sweet potato whitefly, foliar spray on cotton; conditions: Bemisia tabaci, in Gossypium hirsutum, foliar, read-out: SPW 200: % control at 200 ppm against sweet potato whitefly in foliar spray tests
[7] = system: green peach aphid (Myzus persicae); test: Insecticidal test for green peach aphid, foliar spray on cabbage seedlings; conditions: rundown assay, 3 days

Structure (SMILES) | CEW 50: % mortality at 50 μg/cm2 against corn earworm in dietary tests [1] | pest or weed control at 50 ppm [2] | pest or weed control at 200 ppm [2] | FF 25: % mortality at 25 μg/cm2 against fruit fly in dietary tests [3] | BAW 50: % mortality at 50 μg/cm2 against beet armyworm in dietary tests [4] | also measured
CC(Cc1ccc(Cl)nc1)CS(C)(=O)=NC#N (stereo not drawn) [Compound 2, [3-(6-Chloropyridin-3-yl)-2-methylpropyl](methyl)oxido-λ^4-sulfanylidenecyanamide] | G (Inactive) | 80 to 89% | 90 to 100% | G (Inactive) | G (Inactive) | –
CC(Cc1ccc(Cl)nc1)CS(C)(=O)=N[N+](=O)[O-] (stereo not drawn) [Compound 3, 2-chloro-5-(2-methyl-3-{methyl(oxido)[oxido-(oxo)hydrazono]-λ^4-sulfanyl}propyl)pyridine] | G (Inactive) | – | 80 to 89% | G (Inactive) | G (Inactive) | –
CC(CS(C)(=O)=N[N+](=O)[O-])c1ccc(Cl)nc1 (stereo not drawn) [Compound 4, 2-Chloro-5-(1-methyl-2-{methyl(oxido)[oxido(oxo)hydrazono]-λ^4-sulfanyl}ethyl)pyridine] | G (Inactive) | – | < 50% | G (Inactive) | G (Inactive) | pest or weed control at 0.01 mg [5]: < 50%
N#CN=S1(=O)CCCCC1 [Compound 6, 1-Oxidohexahydro-1λ^4-thiopyran-1-ylidenecyanamide] | G (Inactive) | – | – | G (Inactive) | G (Inactive) | –
COC(=O)N=S1(=O)CCCC1Cc1ccc(Cl)nc1 (stereo not drawn) [Compound 7, methyl 2-[(6-chloropyridin-3-yl)methyl]-1-oxidotetrahydro-1H-1λ^4-thien-1-ylidenecarbamate] | G (Inactive) | – | 80 to 89% | G (Inactive) | G (Inactive) | –
CC(CS(C)(=O)=NC#N)c1ccc(Cl)nc1 (stereo not drawn) [Compound 15] | G (Inactive) | 80 to 89% | 90 to 100% | G (Inactive) | G (Inactive) | –
CC[S@@](=O)(C[C@H](C)c1ccc(Cl)nc1)=NC#N [Compound 16] | G (Inactive) | 90 to 100% | 90 to 100% | G (Inactive) | G (Inactive) | pest or weed control at 0.01 mg [5]: < 50%
CC[S@@](=O)(C[C@@H](C)c1ccc(Cl)nc1)=NC#N [Compound 17] | G (Inactive) | 90 to 100% | 90 to 100% | G (Inactive) | G (Inactive) | –
CC[S@](=O)(=NC#N)[C@@H](C)c1ccc(Cl)nc1 [Compound 19] | G (Inactive) | 90 to 100% | 90 to 100% | F (Less than 50) | G (Inactive) | pest or weed control at 200 ppm [6]: 70 to 79%
N#CN=S1(=O)CCCC1c1ccccc1 (stereo not drawn) [Compound 22, (1-oxido-2-phenyltetrahydro-1H-11^4-thien-1-ylidene)cyanamide] | G (Inactive) | 80 to 89% | 90 to 100% | G (Inactive) | G (Inactive) | pest or weed control at 0.01 mg [5]: < 50%
Cc1ccc(CC2CCCS2(=O)=NC#N)cn1 (stereo not drawn) [Compound 30] | G (Inactive) | 90 to 100% | 90 to 100% | G (Inactive) | G (Inactive) | –
CC(C)[C@H]1CCCS1(=O)=NC#N (stereo partly drawn) [Compound 31] | G (Inactive) | – | 90 to 100% | G (Inactive) | G (Inactive) | –
CC(C)C1CCCS1(=O)=NC#N (stereo not drawn) [Compound 32] | G (Inactive) | – | 80 to 89% | G (Inactive) | G (Inactive) | pest or weed control at 0.01 mg [5]: 50 to 59%
CS(=O)(Cc1ccc(Cl)nc1)=N[N+](=O)[O-] (stereo not drawn) [Compound 33] | G (Inactive) | 90 to 100% | 90 to 100% | F (Less than 50) | G (Inactive) | FF SYM: % showing intoxicated symptoms at 25 μg/cm2 against fruit fly in dietary tests [3]: F (Less than 50)
CC(c1ccc(Cl)nc1)S(C)(=O)=N[N+](=O)[O-] (stereo not drawn) [Compound 36] | G (Inactive) | 90 to 100% | 90 to 100% | F (Less than 50) | G (Inactive) | % Control at ppm, against cotton aphid: 0.049 ([2]; 0.049 ppm, rundown assay): F (Less than 50); % Control at ppm, against cotton aphid: 0.195 ([2]; 0.195 ppm, rundown assay): F (Less than 50); % Control at ppm, against cotton aphid: 0.78 ([2]; 0.78 ppm, rundown assay): C (70-79); % Control at ppm, against cotton aphid: 3.12 ([2]; 3.12 ppm, rundown assay): A (90-100); % Control at ppm, against cotton aphid: 12.5 ([2]; 12.5 ppm, rundown assay): A (90-100); % Control at ppm, against cotton aphid: 50 ([2]; 50 ppm, rundown assay): A (90-100); % Control at ppm, against green peach aphid: 0.049 ([7]; 0.049 ppm): F (Less than 50); % Control at ppm, against green peach aphid: 0.195 ([7]; 0.195 ppm): E (50-59); % Control at ppm, against green peach aphid: 0.78 ([7]; 0.78 ppm): D (60-69); % Control at ppm, against green peach aphid: 3.12 ([7]; 3.12 ppm): C (70-79); % Control at ppm, against green peach aphid: 12.5 ([7]; 12.5 ppm): A (90-100); % Control at ppm, against green peach aphid: 50 ([7]; 50 ppm): A (90-100); FF SYM: % showing intoxicated symptoms at 25 μg/cm2 against fruit fly in dietary tests [3]: F (Less than 50)
CS(=O)(CCc1ccc(Cl)nc1)=N[N+](=O)[O-] (stereo not drawn) [Compound 37] | G (Inactive) | 90 to 100% | 90 to 100% | G (Inactive) | G (Inactive) | –
CC[S@](=O)(=N[N+](=O)[O-])[C@H](C)c1ccc(Cl)nc1 [Compound 39] | G (Inactive) | – | 90 to 100% | F (Less than 50) | G (Inactive) | –
CC[S@](=O)(=N[N+](=O)[O-])[C@@H](C)c1ccc(Cl)nc1 [Compound 40] | G (Inactive) | – | 80 to 89% | G (Inactive) | G (Inactive) | –
CCOc1ccc(S(C)(=O)=NC#N)cn1 (stereo not drawn) [Compound 42, (6-Ethoxypyridin-3-yl)(methyl)oxido-λ^4-sulfanylidenecyanamide] | G (Inactive) | 70 to 79% | 90 to 100% | G (Inactive) | G (Inactive) | –
